Measured values: PMC5608352, “Formyl peptide derived lipopeptides disclose differences between the receptors in mouse and men and call the pepducin concept in question” (PLoS ONE, 2017)
Residues, ends and D or L forms follow the SMILES beside them. *: point of attachment. Palmitoyl = CCCCCCCCCCCCCCCC(=O)*

Legend:
Type in all cases: cell-based
FPR2 [1] = target: T1, FPR2 (Homo sapiens, UniProt P25090); assay: Inhibition of WKYMVM-induced superoxide release, human neutrophils
T1 construct: Human peripheral blood neutrophils were isolated from buffy coats from healthy blood donors; endogenous in cells; host or cells: human peripheral blood neutrophils from buffy coats of healthy donors
T1 sequence (P25090 1-351): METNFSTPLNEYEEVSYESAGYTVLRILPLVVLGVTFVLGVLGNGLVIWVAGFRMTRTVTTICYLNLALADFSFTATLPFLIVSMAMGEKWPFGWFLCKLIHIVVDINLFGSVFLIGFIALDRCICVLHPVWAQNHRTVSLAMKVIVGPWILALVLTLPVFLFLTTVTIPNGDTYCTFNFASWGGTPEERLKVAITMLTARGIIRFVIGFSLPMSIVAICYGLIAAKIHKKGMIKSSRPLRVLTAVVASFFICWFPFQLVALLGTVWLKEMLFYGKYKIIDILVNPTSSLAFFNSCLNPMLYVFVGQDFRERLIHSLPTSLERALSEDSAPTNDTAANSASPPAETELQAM
Excerpt: Human peripheral blood neutrophils were isolated from buffy coats from healthy blood donors using dextran sedimentation and Ficoll-Paque gradient centrifugation as described. The remaining erythrocytes were disrupted by hypotonic lysis and the neutrophils were washed twice, suspended in KRG and, stored on melting ice until use. This isolation process permits cells to be purified with minimal granule mobilization. The buffy coats were obtained from the blood bank at Sahlgrenska University Hospital. Ethics approval was not needed since the buffy coats were provided anonymously and could not be traced back to a specific individual. This is in line with Swedish legislation section code 4§ 3p SFS 2003:460 (Lag om etikprövning av forskning som avser människor).
NADPH-oxidase activity was determined using an isoluminol and HRP-enhanced chemiluminescence (CL) system that allow for the determination of superoxide production. The CL activity was measured in a six-channel Biolumat LB 9505 apparatus (Berthold Co., Wildbad, Germany), using disposable 4-mL polypropylene tubes with 1 mL reaction mixture. The tubes contained 4 U HRP and 10 μg/mL isoluminol together with the cells that were equilibrated in the Biolumat for 5 min at 37°C, after which the stimulus solution (100 μL) was added. The light emission was recorded continuously over time and presented as superoxide production (in arbitrary light units, cpm x10^-6) as a function of time (min). The activity before stimulus addition was recorded as basal line and this activity was not changed in vehicle control samples. […]
Data analysis was performed using Graph Pad Prism 7.0. The EC50/IC50 values were determined from experiments in which the activities were normalized to the response induced by maximal response or induced by agonist in the absence of inhibitor. […]
Human neutrophils (10^5 cells) were pre-incubated without (solid line) or with mF2Pal16 (1 μM) for 5 min before stimulation with A) the FPR2 specific agonist WKYMVM (50 nM, indicated by the arrow). […] The release of superoxide anions was measured continuously. […]

Fpr1 = assay: Inhibition of fMIFL-induced superoxide release, WT mouse neutrophils; settings: fMIFL 10 nM; mF2Pal16 1 μM (inset) or 500 nM
Excerpt: (§1) Mice (8–12 weeks of age) were killed by cervical dislocation, the femurs and tibias were removed and freed of soft tissue attachments, and the extreme distal tip of each extremity was cut off. KRG without Ca^2+ and Mg^2+ (KRG-) was forced through the bone by using a 1-mL syringe with a 27-gauge needle. After dispersing cell clumps and removing the debris, the bone marrow granulocytes were isolated according to an earlier described procedure with some modifications. Briefly, a cell suspension in 2 mL of KRG- was laid on top of a three-layer Percoll gradient (1.095, 1.085, and 1.070 g/mL). The density of each Percoll solution was verified using density marker beads. […] The cell number and population of bone marrow cells were determined by flow cytometry based on forward scatter (size) and side scatter (density) localization.
(§2) NADPH-oxidase activity was determined using an isoluminol and HRP-enhanced chemiluminescence (CL) system that allow for the determination of superoxide production. The CL activity was measured in a six-channel Biolumat LB 9505 apparatus (Berthold Co., Wildbad, Germany), using disposable 4-mL polypropylene tubes with 1 mL reaction mixture. […] The light emission was recorded continuously over time and presented as superoxide production (in arbitrary light units, cpm x10^-6) as a function of time (min). […]

Fpr2 [2] = target: T2, Fpr2 (Mus musculus, UniProt O88536); assay: Inhibition of PSMα2-induced superoxide release, WT mouse neutrophils; settings: mF2Pal16 500 nM, 5 min pre-incubation; PSMα2 10 nM
T2 construct: WT mouse neutrophils (5 x 10^4 cells) were pre-incubated without (solid line) or with mF2Pal16; endogenous in cells; host or cells: bone marrow neutrophils of C57BL/6 wild-type mice, TNF-alpha primed
T2 sequence (O88536 1-351): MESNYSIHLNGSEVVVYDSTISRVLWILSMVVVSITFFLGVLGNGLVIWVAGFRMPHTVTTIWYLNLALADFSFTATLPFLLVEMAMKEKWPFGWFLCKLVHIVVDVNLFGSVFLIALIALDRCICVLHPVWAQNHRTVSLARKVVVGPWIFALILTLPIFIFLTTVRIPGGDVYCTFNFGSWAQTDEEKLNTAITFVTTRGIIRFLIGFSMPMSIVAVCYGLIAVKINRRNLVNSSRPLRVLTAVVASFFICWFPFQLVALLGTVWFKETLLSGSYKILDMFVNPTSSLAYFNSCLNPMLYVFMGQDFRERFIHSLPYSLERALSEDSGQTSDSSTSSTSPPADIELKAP
Excerpt: as §1, §2

## CCCCCCCCCCCCCCCC(=O)N[C@@H](CCCCN)C(=O)N[C@H](C(=O)N[C@@H](CC(N)=O)C(=O)N[C@@H](CCCNC(=N)N)C(=O)N[C@@H](CCCNC(=N)N)C(=O)N[C@@H](CC(N)=O)C(=O)N[C@@H](CC(C)C)C(=O)N[C@H](C(=O)N[C@@H](CC(N)=O)C(=O)N[C@@H](CO)C(=O)N[C@@H](CO)C(=O)N[C@@H](CCCNC(=N)N)C(=O)N1CCC[C@H]1C(=O)N[C@@H](CC(C)C)C(=O)N[C@@H](CCCNC(=N)N)C(=O)N[C@H](C(=O)O)C(C)C)C(C)C)[C@@H](C)CC [mF2Pal16] (Palmitoyl-KINRRNLVNSSRPLRV-OH; C-terminus assumed)
FPR2 [1]; human neutrophils
  magnitude of FPR2 inhibitory effect compared with PBP10: not of the same magnitude as that of the most potent FPR2 inhibitor PBP10
FPR2 [1]; pepducin 1 μM pre-incubated (mF2Pal16, F1Pal16: 5 min), WKYMVM 50 nM
  effect on WKYMVM response, human neutrophils: largely inhibited
Fpr1
  effect on fMIFL response, mouse neutrophils: no effect
Fpr2 [2]
  inhibition of PSMα2 response, mouse neutrophils: potently inhibited
